Experimental data: ChEMBL document CHEMBL4038351, “Structure-Guided Development of Covalent and Mutant-Selective Pyrazolopyrimidines to Target T790M Drug Resistance in Epidermal Growth Factor Receptor” (J Med Chem, 2017)
≈ marks a conversion by molar mass, not a printed value. Calls of active or inactive are those of the source. No cut-off for these calls is given here.

Key:
HCC827 = test: cells; assay type: functional, cell-based; settings: Homo sapiens;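 note: antiproliferative effect on HCC827 cells carrying EGFR delE746_A750 mutation, 96 h exposure, viability read by CellTiter-Glo luminescence on day 5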
Description: Antiproliferative activity against human HCC827 cells harboring EGFR-delE746_A750 mutant incubated for 96 hrs measured on day 5 by CellTiterGlo assay

[1] = target: Epidermal growth factor receptor (Homo sapiens, UniProt P00533, L858R)
A549 [2] = test: cells; assay type: ADME, cell-based; settings: Homo sapiens
Description: Antiproliferative activity against human A549 cells harboring KRAS-G12S mutant incubated for 96 hrs measured on day 5 by CellTiterGlo assay

NCI-H1975 [3] = test: cells; assay type: functional, cell-based; settings: Homo sapiens
[4] = target: Epidermal growth factor receptor (Homo sapiens, UniProt P00533, L858R/T790M)
A-431 [5] = test: cells; assay type: ADME, cell-based; settings: Homo sapiens
Description: Antiproliferative activity against human A431 cells expressing wild type EGFR incubated for 96 hrs measured on day 5 by CellTiterGlo assay

[6] = target: Epidermal growth factor receptor (Homo sapiens, UniProt P00533)
NCI-H1975 [7] = test: Antiproliferative activity against human NCI-H1975 cells harboring EGFR-L858R/T790M double mutant at 30 uM incubated for 96 hrs measured on day 5 by CellTiterGlo assay; assay type: functional, cell-based
A-431 [8] = test: Antiproliferative activity against human A431 cells expressing wild type EGFR at 30 uM incubated for 96 hrs measured on day 5 by CellTiterGlo assay; assay type: cell-based; settings: a-431, 96 h
A549 [9] = test: Antiproliferative activity against human A549 cells harboring KRAS-G12S mutant at 30 uM incubated for 96 hrs measured on day 5 by CellTiterGlo assay; assay type: cell-based; settings: a549, 96 h
[10] = Metabolic stability in mouse plasma at 5 uM incubated for 1 hr by LC-MS method; assay type: ADME, cell-free; settings: read-out: Stability
[11] = Fraction unbound in mouse 100% plasma at 5 uM incubated for 6 hrs by LC-MS method; assay type: ADME, cell-free
in vitro [12] = settings: human, liver microsomes
[13] = Kinetic solubility in Hepes buffer at 500 uM at pH 7.4 after 90 mins; assay type: physicochemical; settings: read-out: Kinetic_solubility
in vitro [14] = settings: mouse, liver microsomes
[15] = Metabolic stability in human plasma at 5 uM incubated for 1 hr by LC-MS method; assay type: ADME, cell-free; settings: read-out: Stability
[16] = Permeability of the compound at 500 uM incubated for 20 hrs by PAMPA; assay type: physicochemical
[17] = Apparent permeability across basolateral to apical side in human Caco2 cells at 5 uM incubated for 2 hrs; assay type: ADME, cell-based, Caco-2; settings: caco-2, 2 h, 5 µM
[18] = Apparent permeability across apical to basolateral side in human Caco2 cells at 5 uM incubated for 2 hrs; assay type: ADME, cell-based, Caco-2; settings: caco-2, 2 h, 5 µM

Sequence of Epidermal growth factor receptor (Homo sapiens, UniProt P00533) (P00533 whole entry): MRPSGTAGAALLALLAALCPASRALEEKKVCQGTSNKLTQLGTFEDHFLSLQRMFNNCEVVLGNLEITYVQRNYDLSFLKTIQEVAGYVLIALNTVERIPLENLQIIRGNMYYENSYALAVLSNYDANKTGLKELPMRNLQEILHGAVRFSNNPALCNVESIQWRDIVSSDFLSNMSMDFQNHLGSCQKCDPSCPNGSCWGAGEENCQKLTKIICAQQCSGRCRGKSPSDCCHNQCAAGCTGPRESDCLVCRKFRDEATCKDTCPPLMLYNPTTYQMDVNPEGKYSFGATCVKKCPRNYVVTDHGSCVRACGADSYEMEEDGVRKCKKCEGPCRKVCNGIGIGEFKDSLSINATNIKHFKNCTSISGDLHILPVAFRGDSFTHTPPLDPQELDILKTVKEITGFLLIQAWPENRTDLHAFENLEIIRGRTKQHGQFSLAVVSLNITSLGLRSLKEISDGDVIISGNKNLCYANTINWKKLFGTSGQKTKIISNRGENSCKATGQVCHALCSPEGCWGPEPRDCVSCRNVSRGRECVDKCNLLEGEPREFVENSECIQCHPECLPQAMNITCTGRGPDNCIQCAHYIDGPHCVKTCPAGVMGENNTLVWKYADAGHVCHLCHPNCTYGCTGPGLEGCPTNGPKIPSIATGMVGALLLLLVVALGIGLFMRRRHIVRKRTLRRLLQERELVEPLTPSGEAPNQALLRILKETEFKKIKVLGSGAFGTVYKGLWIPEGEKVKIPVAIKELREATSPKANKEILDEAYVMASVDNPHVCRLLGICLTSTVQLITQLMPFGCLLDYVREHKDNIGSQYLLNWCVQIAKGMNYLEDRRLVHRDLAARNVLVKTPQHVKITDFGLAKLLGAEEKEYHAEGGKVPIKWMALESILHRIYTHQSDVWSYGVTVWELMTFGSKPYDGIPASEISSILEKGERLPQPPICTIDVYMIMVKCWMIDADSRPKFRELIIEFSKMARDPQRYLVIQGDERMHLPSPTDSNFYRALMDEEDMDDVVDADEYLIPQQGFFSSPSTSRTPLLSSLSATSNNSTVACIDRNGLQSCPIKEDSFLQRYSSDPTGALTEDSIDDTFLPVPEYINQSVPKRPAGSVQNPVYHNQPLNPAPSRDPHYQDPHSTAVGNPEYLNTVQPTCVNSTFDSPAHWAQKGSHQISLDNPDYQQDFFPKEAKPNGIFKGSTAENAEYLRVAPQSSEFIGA
Sequence of Epidermal growth factor receptor (Homo sapiens, UniProt P00533, L858R) (P00533 25-1210 L858R limits assumed): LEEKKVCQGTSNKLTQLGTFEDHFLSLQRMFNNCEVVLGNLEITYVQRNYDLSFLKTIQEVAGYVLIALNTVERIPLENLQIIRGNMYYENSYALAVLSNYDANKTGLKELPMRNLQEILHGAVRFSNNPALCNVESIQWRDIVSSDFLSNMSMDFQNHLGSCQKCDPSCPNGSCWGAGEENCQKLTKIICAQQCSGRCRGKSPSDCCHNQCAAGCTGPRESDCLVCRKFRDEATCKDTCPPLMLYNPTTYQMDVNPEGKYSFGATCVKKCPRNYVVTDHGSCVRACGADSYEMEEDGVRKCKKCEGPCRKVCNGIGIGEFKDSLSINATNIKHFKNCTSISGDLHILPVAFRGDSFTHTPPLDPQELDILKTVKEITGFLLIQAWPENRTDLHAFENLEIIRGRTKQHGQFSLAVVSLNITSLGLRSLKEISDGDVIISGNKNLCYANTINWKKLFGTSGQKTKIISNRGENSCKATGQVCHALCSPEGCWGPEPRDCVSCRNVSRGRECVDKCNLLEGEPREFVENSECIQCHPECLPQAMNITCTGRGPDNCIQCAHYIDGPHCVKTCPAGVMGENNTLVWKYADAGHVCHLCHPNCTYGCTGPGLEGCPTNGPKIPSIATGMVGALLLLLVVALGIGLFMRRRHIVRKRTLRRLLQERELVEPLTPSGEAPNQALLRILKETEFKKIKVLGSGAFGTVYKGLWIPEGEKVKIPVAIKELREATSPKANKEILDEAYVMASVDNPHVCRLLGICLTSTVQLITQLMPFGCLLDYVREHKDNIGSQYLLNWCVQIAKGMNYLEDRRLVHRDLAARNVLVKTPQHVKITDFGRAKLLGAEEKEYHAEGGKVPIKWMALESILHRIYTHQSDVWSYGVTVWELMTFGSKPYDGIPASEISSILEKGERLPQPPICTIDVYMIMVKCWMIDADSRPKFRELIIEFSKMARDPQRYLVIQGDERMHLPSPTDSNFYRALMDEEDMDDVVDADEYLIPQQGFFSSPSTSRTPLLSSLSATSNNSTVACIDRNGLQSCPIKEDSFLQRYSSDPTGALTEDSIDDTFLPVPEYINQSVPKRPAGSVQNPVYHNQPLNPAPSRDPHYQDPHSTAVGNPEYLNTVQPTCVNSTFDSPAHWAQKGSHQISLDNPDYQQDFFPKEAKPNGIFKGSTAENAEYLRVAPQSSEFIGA
Sequence of Epidermal growth factor receptor (Homo sapiens, UniProt P00533, L858R/T790M) (P00533 25-1210 T790M/L858R limits assumed): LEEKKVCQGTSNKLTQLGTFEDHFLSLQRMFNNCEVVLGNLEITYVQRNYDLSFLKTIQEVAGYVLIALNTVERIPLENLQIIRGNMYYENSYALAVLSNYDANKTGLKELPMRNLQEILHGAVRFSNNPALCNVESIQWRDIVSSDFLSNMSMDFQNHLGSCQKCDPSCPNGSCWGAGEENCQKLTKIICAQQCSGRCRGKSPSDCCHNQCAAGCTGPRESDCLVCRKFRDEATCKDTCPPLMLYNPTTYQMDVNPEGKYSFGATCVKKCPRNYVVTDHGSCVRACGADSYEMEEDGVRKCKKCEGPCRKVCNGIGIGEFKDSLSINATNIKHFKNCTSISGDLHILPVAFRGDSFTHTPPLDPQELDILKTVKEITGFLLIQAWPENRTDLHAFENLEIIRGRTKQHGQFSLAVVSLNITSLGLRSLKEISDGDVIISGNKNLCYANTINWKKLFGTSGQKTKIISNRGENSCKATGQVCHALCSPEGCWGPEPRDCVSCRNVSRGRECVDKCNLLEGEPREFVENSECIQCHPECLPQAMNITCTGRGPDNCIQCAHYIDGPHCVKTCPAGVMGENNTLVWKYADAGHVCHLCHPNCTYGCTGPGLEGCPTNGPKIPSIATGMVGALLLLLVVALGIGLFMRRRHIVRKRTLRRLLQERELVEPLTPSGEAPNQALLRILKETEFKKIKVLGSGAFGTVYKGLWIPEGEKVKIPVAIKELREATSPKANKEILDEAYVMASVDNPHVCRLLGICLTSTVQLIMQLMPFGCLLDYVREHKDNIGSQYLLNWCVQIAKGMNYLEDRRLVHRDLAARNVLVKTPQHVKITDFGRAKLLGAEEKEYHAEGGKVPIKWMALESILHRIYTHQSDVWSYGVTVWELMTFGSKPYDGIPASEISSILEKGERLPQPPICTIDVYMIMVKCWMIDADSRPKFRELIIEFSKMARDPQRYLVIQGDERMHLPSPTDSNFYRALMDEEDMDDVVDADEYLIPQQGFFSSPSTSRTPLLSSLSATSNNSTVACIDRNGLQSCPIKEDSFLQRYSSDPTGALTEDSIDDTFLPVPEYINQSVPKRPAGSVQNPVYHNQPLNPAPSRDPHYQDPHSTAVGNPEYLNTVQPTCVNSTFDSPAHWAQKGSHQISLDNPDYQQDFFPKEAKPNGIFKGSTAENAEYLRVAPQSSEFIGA

Row | SMILES | EC50 (HCC827) | IC50 [1] | EC50 (A549 [2]) | EC50 (NCI-H1975 [3]) | IC50 [4] | EC50 (A-431 [5]) | IC50 [6] | Activity (NCI-H1975 [7]) | Activity (A-431 [8]) | Activity (A549 [9]) | remaining at 1 h, 5 µM [10] | fraction unbound at 6 h, 5 µM [11] | microsomal CLint at 50 min, 3 µM (in vitro [12]) | solubility kinetic at 1.5 h, 500 µM [13] | microsomal CLint at 50 min, 3 µM (in vitro [14]) | remaining at 1 h, 5 µM [15] | permeability [16] | Papp [17] | Papp [18]
1 | C=CC(=O)N1CCC[C@@H](n2nc(C#CCC3CCCC3)c3c(N)ncnc32)C1 | 3150 nM | 120 nM | 19900 nM | 6930 nM | 920 nM | 8770 nM | 750 nM |  |  |  |  |  |  |  |  |  |  |  | 
2 | CCC(=O)N1CCC[C@@H](n2nc(-c3ccc(C(F)(F)F)cc3)c3c(N)ncnc32)C1 | 23600 nM | 5900 nM |  |  | > 10000 nM |  | 6500 nM | inactive | Non-Toxic | Non-Toxic |  |  |  |  |  |  |  |  | 
3 | C=CC(=O)N1CCC[C@@H](n2nc(-c3ccc(F)cc3)c3c(N)ncnc32)C1 |  | 30 nM |  |  | 280 nM |  | 130 nM |  |  |  |  |  |  |  |  |  |  |  | 
4 | C=CC(=O)N1CCC[C@@H](n2nc(Cc3ccccc3)c3c(N)ncnc32)C1 | 150 nM | 3 nM |  | 690 nM | 10 nM | 19900 nM | 20 nM |  |  | Non-Toxic |  |  |  |  |  |  |  |  | 
5 | C=CC(=O)N1CCC[C@@H](n2nc(-c3ccccc3)c3c(N)ncnc32)C1 | 70 nM | 10 nM | 21700 nM | 3670 nM | 240 nM | 12700 nM | 140 nM |  |  |  | 91% | 0.33 | 122 µL/min/mg | 461 µM (≈ 161 µg/mL) | 924 µL/min/mg | 97% | 59% |  | 
6 | CN(C)C/C=C/C(=O)Nc1cc2c(Nc3ccc(F)c(Cl)c3)ncnc2cc1O[C@H]1CCOC1 [AFATINIB] | < 14 nM |  | 1490 nM | 600 nM |  | 200 nM |  |  |  |  |  |  |  |  |  |  |  |  | 
7 | C=CC(=O)N1CCC[C@@H](n2nc(C3CC3)c3c(N)ncnc32)C1 | 310 nM | 110 nM |  | 5830 nM | 220 nM | 28100 nM | 700 nM |  |  | Non-Toxic |  |  |  |  |  |  |  |  | 
8 | CCC(=O)N1CCC[C@@H](n2nc(-c3ccc(F)cc3)c3c(N)ncnc32)C1 | 25900 nM | 5000 nM |  |  | > 10000 nM |  | > 10000 nM | inactive | Non-Toxic | Non-Toxic |  |  |  |  |  |  |  |  | 
9 | CN(C)C/C=C/C(=O)N1CCC[C@@H](n2nc(-c3cccc(C(F)(F)F)c3)c3c(N)ncnc32)C1 | 6390 nM | 1000 nM |  | 20600 nM | 6100 nM | 13700 nM | 7300 nM |  |  | Non-Toxic |  |  |  |  |  |  |  |  | 
10 | C#Cc1nn([C@@H]2CCCN(C(=O)C=C)C2)c2ncnc(N)c12 | 2050 nM | 960 nM | 28300 nM | 16200 nM | 690 nM | 29600 nM | 1500 nM |  |  |  |  |  |  |  |  |  |  |  | 
11 | C=CC(=O)N1CCC[C@@H](n2nc(-c3ccc(N(C)C)c4ccccc34)c3c(N)ncnc32)C1 | 2130 nM | 270 nM |  | 2670 nM | 210 nM | 24500 nM | 810 nM |  |  | Non-Toxic |  |  |  |  |  |  |  |  | 
12 | CCC(=O)N1CCC[C@@H](n2nc(-c3cccc(F)c3)c3c(N)ncnc32)C1 | 22300 nM | 3400 nM |  |  | > 10000 nM |  | > 10000 nM | inactive | Non-Toxic | Non-Toxic |  |  |  |  |  |  |  |  | 
13 | CN(C)C/C=C/C(=O)N1CCC[C@@H](n2nc(-c3ccccc3)c3c(N)ncnc32)C1 | 1190 nM | 220 nM |  | 29900 nM | 6600 nM | 29800 nM | 3000 nM |  |  | Non-Toxic |  |  |  |  |  |  |  |  | 
14 | C=CC(=O)N1CCC[C@@H](n2nc(-c3ccc(O)cc3)c3c(N)ncnc32)C1 | 70 nM |  | 20000 nM | 1840 nM |  | 4170 nM |  |  |  |  |  |  |  |  |  |  |  |  | 
15 | C=CC(=O)N1CCC[C@@H](n2ncc3c(N)ncnc32)C1 | 9900 nM | 2500 nM |  |  | 1600 nM |  | 6900 nM | inactive | Non-Toxic | Non-Toxic |  |  |  |  |  |  |  |  | 
16 | C=CC(=O)N1CCC[C@@H](n2nc(-c3cnc4[nH]ccc4c3)c3c(N)ncnc32)C1 | < 14 nM |  | 3450 nM | 280 nM | 3 nM | 1390 nM | 10 nM |  |  |  | 96% | 0.37 | 108 µL/min/mg | 457 µM (≈ 178 µg/mL) | 495 µL/min/mg | 98% | 27% |  | 
17 | C=CC(=O)N1CCC[C@@H](n2nc(-c3cccc(F)c3)c3c(N)ncnc32)C1 | 70 nM | 10 nM |  | 3370 nM | 230 nM | 11700 nM | 130 nM |  |  | Non-Toxic |  |  |  |  |  |  |  |  | 
18 | C=CC(=O)Nc1cccc(Oc2nc(Nc3ccc(N4CCN(C)CC4)cc3OC)ncc2Cl)c1 | 20 nM |  | 3990 nM | 90 nM |  |  |  |  |  |  |  |  |  |  |  |  |  |  | 
19 | C=CC(=O)N1CCC[C@@H](n2nc(-c3ccc(F)c4ccccc34)c3c(N)ncnc32)C1 | 430 nM |  |  | 360 nM |  | 12800 nM |  |  |  | Non-Toxic |  |  |  |  |  |  |  |  | 
20 | C=CC(=O)N1CCC[C@@H](n2nc(C#CC3CCCC3)c3c(N)ncnc32)C1 | 1150 nM | 60 nM | 27100 nM | 8270 nM | 1400 nM | 10900 nM | 750 nM |  |  |  |  |  |  |  |  |  |  |  | 
21 | C=CC(=O)N1CCC[C@@H](n2nc(-c3cccc(C(F)(F)F)c3)c3c(N)ncnc32)C1 | 650 nM | 30 nM | 22200 nM | 4160 nM | 220 nM | 16000 nM |  |  |  |  | 99% | 0.09 | 578 µL/min/mg | 427 µM (≈ 178 µg/mL) | 2770 µL/min/mg | 96% | 76% |  | 
22 | C=CC(=O)N1CCC[C@@H](n2nc(-c3ccc(C(F)(F)F)cc3)c3c(N)ncnc32)C1 | 160 nM | 60 nM |  | 1380 nM | 270 nM | 8870 nM | 60 nM |  |  | Non-Toxic |  |  |  |  |  |  |  |  | 
23 | C=CC(=O)N1CCC[C@@H](n2nc(-c3ccc(Oc4ccccc4)cc3)c3c(N)ncnc32)C1 [IBRUTINIB] | 450 nM |  |  | 640 nM |  | 2380 nM |  |  |  | Non-Toxic | 96% | 0.01 |  | 57 µM (≈ 25.1 µg/mL) |  | 80% | 38% | 0.9 ×10⁻⁸ cm/s | 40 ×10⁻⁸ cm/s
